Several values for one entry are separate records, joined by “and”; a condition that tells them apart may be missing. Equal entries are not always repeated. Toxic doses and inconclusive results are not listed. Rule for the calls: active = survival T/C of 150% or more; inactive = T/C below 125% in these data.
System: BDF1 mice, P388 leukemia ip, median survival T/C
Assay: NCI In Vivo Anticancer Drug Screen. Data for tumor model P388 Leukemia (intraperitoneal) in B6D2F1 (BDF1) mice
Conditions: endpoint: median survival time, higher = longer survival
In short: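 T/C = treated-group survival ÷ vehicle-control survival; tumour transplanted into mice before dosing.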

[1] = dose: 50.0 mg/kg/injection, schedule: Q01DX009 (ip), vehicle: saline with Tween-80
[2] = dose: 100.0 mg/kg/injection, schedule: Q01DX009 (ip), vehicle: saline with Tween-80
[3] = dose: 200.0 mg/kg/injection, schedule: Q01DX009 (ip), vehicle: saline with Tween-80
[4] = dose: 100.0 mg/kg/injection, schedule: Q04DX003 (ip), vehicle: saline with Tween-80
[5] = dose: 200.0 mg/kg/injection, schedule: Q04DX003 (ip), vehicle: saline with Tween-80
[6] = dose: 400.0 mg/kg/injection, schedule: Q04DX003 (ip), vehicle: saline with Tween-80
[7] = dose: 50.0 mg/kg/injection, schedule: Q04DX003 (ip), vehicle: saline
[8] = dose: 6.25 mg/kg/injection, schedule: Q01DX009 (ip), vehicle: saline with Tween-80
[9] = dose: 12.5 mg/kg/injection, schedule: Q01DX009 (ip), vehicle: saline with Tween-80
[10] = dose: 100.0 mg/kg/injection, schedule: Q04DX003 (ip), vehicle: saline

Measured: T/C

Cc1c(N)c2ccccc2c(=O)n1C
inactive: dose: 50.0 mg/kg/injection, schedule: Q01DX005 (ip), vehicle: saline with Tween-80 92 % of control | dose: 100.0 mg/kg/injection, schedule: Q01DX005 (ip), vehicle: saline with Tween-80 97 % of control | dose: 200.0 mg/kg/injection, schedule: Q01DX005 (ip), vehicle: saline with Tween-80 106 % of control

NC(=O)C(N)=O
inactive: dose: 100.0 mg/kg/injection, schedule: Q01DX009 (ip), vehicle: Klucel (hydroxypropylcellulose) (HPC) 103 % of control | dose: 200.0 mg/kg/injection, schedule: Q01DX009 (ip), vehicle: Klucel (hydroxypropylcellulose) (HPC) 93 % of control | dose: 400.0 mg/kg/injection, schedule: Q01DX009 (ip), vehicle: Klucel (hydroxypropylcellulose) (HPC) 109 % of control

Cc1cccc(C(=O)Cc2cccc(C#N)c2)c1
inactive: [1] 113 % of control | [2] 99 % of control | [3] 96 % of control

CCOC(=O)CCN(CC(=O)OCC)C(C)C
inactive: [2] 104 % of control | [4] 95 % of control | [3] 104 % of control | [5] 104 % of control | dose: 400.0 mg/kg/injection, schedule: Q01DX009 (ip), vehicle: saline with Tween-80 109 % of control | [6] 95 % of control

C/C(CCCCl)=N/N=C(N)N
inactive: dose: 7.03 mg/kg/injection, schedule: Q01DX001 (ip), vehicle: saline 104 % of control | dose: 14.06 mg/kg/injection, schedule: Q01DX001 (ip), vehicle: saline 100 % of control | dose: 18.75 mg/kg/injection, schedule: Q01DX009 (ip), vehicle: saline 115 % of control | dose: 18.75 mg/kg/injection, schedule: Q04DX003 (ip), vehicle: saline 109 % of control | dose: 37.5 mg/kg/injection, schedule: Q01DX009 (ip), vehicle: saline 115 % of control | dose: 37.5 mg/kg/injection, schedule: Q04DX003 (ip), vehicle: saline 100 % of control | [7] 122 % of control | dose: 75.0 mg/kg/injection, schedule: Q01DX009 (ip), vehicle: saline 115 % of control | dose: 75.0 mg/kg/injection, schedule: Q04DX003 (ip), vehicle: saline 100 % of control

CCCC[N+](CCCC)=c1cc(-c2ccc(Cl)cc2)ss1
inactive: dose: 3.12 mg/kg/injection, schedule: Q01DX009 (ip), vehicle: water 100 % of control and 114 % of control | dose: 6.25 mg/kg/injection, schedule: Q01DX009 (ip), vehicle: water 91 % of control and 120 % of control | dose: 12.5 mg/kg/injection, schedule: Q01DX009 (ip), vehicle: water 98 % of control and 104 % of control | dose: 25.0 mg/kg/injection, schedule: Q01DX009 (ip), vehicle: water 100 % of control and 106 % of control | dose: 50.0 mg/kg/injection, schedule: Q04DX003 (ip), vehicle: water 102 % of control | dose: 100.0 mg/kg/injection, schedule: Q04DX003 (ip), vehicle: water 93 % of control

O=c1c2ccccc2nc(-c2ccccc2Cl)n1-c1nnc(C(F)(F)F)s1
inactive: dose: 3.12 mg/kg/injection, schedule: Q01DX009 (ip), vehicle: saline with Tween-80 87 % of control | [8] 89 % of control | [9] 89 % of control

Cc1ccc(C(=O)C2C(c3ccccc3)N2Cc2ccccc2)cc1 (stereo unspecified)
inactive: [4] 94 % of control and 99 % of control | [5] 109 % of control and 92 % of control | [6] 99 % of control and 87 % of control

CCOC(=O)C(Br)C(Br)c1ccccc1 (stereo unspecified)
inactive: dose: 50.0 mg/kg/injection, schedule: Q01DX001 (ip), vehicle: saline 100 % of control | dose: 50.0 mg/kg/injection, schedule: Q04DX003 (ip), vehicle: saline with Tween-80 91 % of control | dose: 100.0 mg/kg/injection, schedule: Q01DX001 (ip), vehicle: saline 90 % of control | [4] 108 % of control | dose: 200.0 mg/kg/injection, schedule: Q01DX001 (ip), vehicle: saline 118 % of control | [5] 112 % of control

NNc1cccc(Cl)n1
inactive: [1] 103 % of control

N#CN1CC(C(=O)N2CCCCC2)C=C2c3cccc4[nH]cc(c34)CC21 (stereo unspecified)
inactive: dose: 6.25 mg/kg/injection, schedule: Q01DX009 (ip), vehicle: saline 106 % of control | dose: 6.25 mg/kg/injection, schedule: Q04DX003 (ip), vehicle: saline 114 % of control | dose: 12.5 mg/kg/injection, schedule: Q01DX009 (ip), vehicle: saline 94 % of control | dose: 12.5 mg/kg/injection, schedule: Q04DX003 (ip), vehicle: saline 113 % of control | dose: 25.0 mg/kg/injection, schedule: Q04DX003 (ip), vehicle: saline 106 % of control | dose: 50.0 mg/kg/injection, schedule: Q01DX009 (ip), vehicle: saline 88 % of control | [7] 106 % of control | [10] 94 % of control

COC(OC)c1[nH]c(=S)[nH]c(=O)c1C
inactive: dose: 100.0 mg/kg/injection, schedule: Q04DX003 (sc), vehicle: olive oil, sesame oil, peanut oil 90 % of control | dose: 200.0 mg/kg/injection, schedule: Q04DX003 (sc), vehicle: olive oil, sesame oil, peanut oil 95 % of control | dose: 400.0 mg/kg/injection, schedule: Q04DX003 (sc), vehicle: olive oil, sesame oil, peanut oil 90 % of control

O=[N+]([O-])c1ccc(N=Nc2c(Cl)cc(O)cc2Cl)cc1
inactive: dose: 3.13 mg/kg/injection, schedule: Q01DX009 (ip), vehicle: saline with Tween-80 95 % of control | dose: 6.25 mg/kg/injection, schedule: Q01DX009 (ip), vehicle: Klucel (hydroxypropylcellulose) (HPC) 115 % of control | [8] 95 % of control | dose: 12.5 mg/kg/injection, schedule: Q01DX009 (ip), vehicle: Klucel (hydroxypropylcellulose) (HPC) 110 % of control | [9] 95 % of control | dose: 25.0 mg/kg/injection, schedule: Q01DX009 (ip), vehicle: Klucel (hydroxypropylcellulose) (HPC) 115 % of control | dose: 35.0 mg/kg/injection, schedule: Q01DX009 (ip), vehicle: Klucel (hydroxypropylcellulose) (HPC) 94 % of control | dose: 50.0 mg/kg/injection, schedule: Q01DX009 (ip), vehicle: Klucel (hydroxypropylcellulose) (HPC) 97 % of control | dose: 75.0 mg/kg/injection, schedule: Q01DX009 (ip), vehicle: Klucel (hydroxypropylcellulose) (HPC) 118 % of control | [2] 120 % of control | dose: 100.0 mg/kg/injection, schedule: Q04DX003 (ip), vehicle: saline sonified 100 % of control | dose: 200.0 mg/kg/injection, schedule: Q04DX003 (ip), vehicle: saline sonified 100 % of control | dose: 400.0 mg/kg/injection, schedule: Q04DX003 (ip), vehicle: saline sonified 100 % of control

N#[N+]c1ccc2c(S(=O)(=O)O)cccc2c1O
inactive: dose: 100.0 mg/kg/injection, schedule: Q01DX009 (ip), vehicle: saline 92 % of control | [10] 100 % of control | dose: 200.0 mg/kg/injection, schedule: Q01DX009 (ip), vehicle: saline 103 % of control | dose: 200.0 mg/kg/injection, schedule: Q04DX003 (ip), vehicle: saline 108 % of control | dose: 400.0 mg/kg/injection, schedule: Q01DX009 (ip), vehicle: saline 89 % of control | dose: 400.0 mg/kg/injection, schedule: Q04DX003 (ip), vehicle: saline 95 % of control

COC(OC)c1cc(S)[nH]c(=O)c1F
inactive: dose: 100.0 mg/kg/injection, schedule: Q04DX003 (ip), vehicle: Klucel (hydroxypropylcellulose) (HPC) 100 % of control | dose: 200.0 mg/kg/injection, schedule: Q04DX003 (ip), vehicle: Klucel (hydroxypropylcellulose) (HPC) 110 % of control | dose: 400.0 mg/kg/injection, schedule: Q04DX003 (ip), vehicle: Klucel (hydroxypropylcellulose) (HPC) 100 % of control
